Measured values published in patent US5227488A, “Aza spiro decane and use thereof in treating CNS disorders” (Novo Nordisk A/S, priority 1989, dated 1993).
Structures can show the parent of a compound that is named as a salt.

How the values were obtained:
5-HT1A = target: T1, 5-HT1A (Rattus norvegicus, UniProt P19327); assay: Receptor binding in vitro, 5-HT1A (3H-8OH-DPAT displacement); conditions: ligand 3H-8OH-DPAT 2 nM; rat frontal cortex, hippocampus
T1 construct: from tissue; host or cells: rat brain: frontal cortex, hippocampus
T1 sequence (P19327 1-422): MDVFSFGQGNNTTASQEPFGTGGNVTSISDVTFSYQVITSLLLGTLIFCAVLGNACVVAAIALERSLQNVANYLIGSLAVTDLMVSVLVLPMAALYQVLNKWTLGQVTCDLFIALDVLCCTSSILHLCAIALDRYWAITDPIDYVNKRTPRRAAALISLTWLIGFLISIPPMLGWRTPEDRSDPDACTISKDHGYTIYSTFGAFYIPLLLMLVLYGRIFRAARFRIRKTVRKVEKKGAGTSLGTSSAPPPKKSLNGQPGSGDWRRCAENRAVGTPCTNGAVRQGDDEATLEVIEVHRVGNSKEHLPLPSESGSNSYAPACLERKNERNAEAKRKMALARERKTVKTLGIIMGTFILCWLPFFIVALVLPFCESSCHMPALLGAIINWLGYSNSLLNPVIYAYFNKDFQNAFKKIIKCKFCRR
Procedure: (§1) Compounds of the general formula (I) were tested for binding to 5-HT receptors and compared with known ligands by the following procedure:
(§2) Rat brain tissue (as specified in the table hereinafter) was homogenized using a Polytron homogenizer. The final pellet was resuspended in 125 vol (tissue wet weight) of buffer.
(§3) In all assays incubation was carried out for 10 min at 37° C.
(§4) Detailed conditions for the receptor binding assay in vitro are tabulated below.

5-HT1B = target: T2, 5-HT1B (Rattus norvegicus, UniProt P28564); assay: Receptor binding in vitro, 5-HT1B (3H-5-HT displacement, with 50 nM 8-OH-DPAT)
T2 construct: from tissue; host or cells: rat brain: frontal cortex, hippocampus
Procedure: as §1, §2, §3
Labelling of the 5-HT1B receptor was complicated by the fact that the available ligand ^3 H-5-HT is nonselective.
as §4

Adenylatcyclase = assay: Adenylatcyclase; assay type: biochemical
5-HT2 = target: T3, 5-HT2 (Rattus norvegicus, UniProt P14842); assay: Receptor binding in vitro, 5-HT2 (3H-ketanserin displacement)
T3 construct: from tissue; host or cells: rat brain: frontal cortex, striatum
Procedure: as §1, §2, §3, §4

5-HT1 recognition sites = conditions: background; Ann. Reports Med. Chem. 21 (1986), 42-43; cited from earlier work
5-HT1A receptors = conditions: background; cited from earlier work
5-HT2 receptor subtype = conditions: background; cited from earlier work

T3 sequence (P14842 whole entry): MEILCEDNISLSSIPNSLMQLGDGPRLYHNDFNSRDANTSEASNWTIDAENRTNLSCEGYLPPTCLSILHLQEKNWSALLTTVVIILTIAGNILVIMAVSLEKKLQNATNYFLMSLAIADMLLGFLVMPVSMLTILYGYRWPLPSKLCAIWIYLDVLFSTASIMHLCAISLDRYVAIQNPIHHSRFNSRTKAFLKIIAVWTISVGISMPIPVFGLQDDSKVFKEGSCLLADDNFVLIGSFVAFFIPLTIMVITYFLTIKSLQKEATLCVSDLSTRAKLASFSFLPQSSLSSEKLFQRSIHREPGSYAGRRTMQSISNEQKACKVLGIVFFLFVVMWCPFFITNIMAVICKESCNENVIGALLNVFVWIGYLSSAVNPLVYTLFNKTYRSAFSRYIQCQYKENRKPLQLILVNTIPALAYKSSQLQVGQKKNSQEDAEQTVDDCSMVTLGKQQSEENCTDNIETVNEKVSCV
T2 sequence (P28564 whole entry): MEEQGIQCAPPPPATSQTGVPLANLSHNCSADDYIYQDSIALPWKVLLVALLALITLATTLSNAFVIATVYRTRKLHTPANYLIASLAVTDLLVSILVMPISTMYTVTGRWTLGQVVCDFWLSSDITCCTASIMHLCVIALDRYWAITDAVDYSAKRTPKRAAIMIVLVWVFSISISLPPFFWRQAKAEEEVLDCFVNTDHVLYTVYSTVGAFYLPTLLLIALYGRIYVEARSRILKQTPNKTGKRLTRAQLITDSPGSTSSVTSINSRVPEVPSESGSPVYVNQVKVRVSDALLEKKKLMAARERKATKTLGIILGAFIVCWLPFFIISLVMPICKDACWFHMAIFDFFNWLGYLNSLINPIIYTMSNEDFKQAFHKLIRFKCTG

| SMILES | IC50 (5-HT1A) [nM] | IC50 (5-HT1B) [nM] | IC50 (Adenylatcyclase) [nM] | IC50 (5-HT2) [nM] | affinity for 5-HT1 recognition sites (in words) (5-HT1 recognition sites) | discrimination between the 5-HT1A and 5-HT1B receptor subtypes (in words) (5-HT1 recognition sites) | affinity for 5-HT1A receptors (in words) (5-HT1A receptors) | affinity for the 5-HT2 receptor subtype (in words) (5-HT2 receptor subtype) |
| --- | --- | --- | --- | --- | --- | --- | --- | --- |
| COc1ccc2[nH]cc(OCCNCCCCN3C(=O)CC4(CCCC4)CC3=O)c2c1 [Example 23, 1-(4-(7,9-Dioxo-8-azaspiro[4,5]decan-8-yl)butyl-1-amino)-2-(5-methoxy-3-indolyloxy)-ethane, oxalate] | 0.6 | > 1000 | 1.8 | > 1000 |  |  |  |  |
| COc1ccc2[nH]cc(C3=CCNCC3)c2c1 [RU 24969] |  |  |  |  | high affinity | only limited capacity to discriminate |  |  |
| COc1ccc2[nH]cc(SCCNCCCCN3C(=O)C4C5C=CC(C6CC56)C4C3=O)c2c1 (stereo not drawn) [Example 10] | 8 | > 1000 | 23 | > 1000 |  |  |  |  |
| O=C1c2ccccc2S(=O)(=O)N1CCCCNCCSc1c[nH]c2ccccc12 [Example 6, 1-(4-(o-Sulfobenzimido)butyl-1-amino)-2-(3-indolylthio)ethane, oxalate] | 34 | > 1000 | 20 | > 1000 |  |  |  |  |
| O=C1CC2(CCCC2)CC(=O)N1CCCCN1CCN(c2ncccn2)CC1 [buspirone, reference compound] |  |  | 125 |  |  |  |  |  |
| CC1(C)CC(=O)N(CCCCN2CCN(c3ncccn3)CC2)C(=O)C1 [gepirone, reference compound] |  |  | 1000 | > 1000 |  |  |  |  |
| CCCN(CCC)C1CCc2cccc(O)c2C1 (stereo not drawn) [Example 8-OH-DPAT, 8-hydroxy-2-(di-n-propylamino)tetralin, reference compound] |  |  | 80 | > 1000 |  |  | binds with high affinity |  |
| COc1ccc2[nH]cc(SCCNCCCCN3C(=O)C4CC=CCC4C3=O)c2c1 (stereo not drawn) [Example 12, 1-(4-(Cis-4-cyclohexen-1,2-dicarboximido)butyl-1-amino)-2-(5-methoxy-3-indolylthio)-ethane, oxalate] | 17 | > 1000 | 240 | > 1000 |  |  |  |  |
| O=C1CC2(CCCC2)CC(=O)N1CCCCNCCSc1c[nH]c2ccccc12 [Example 3, 1-(4-(7,9-Dioxo-8-azaspiro[4,5]decan-8-yl)butyl-1-amino)2-(3-indolylthio)-ethane, oxalate] | 40 | 233 | 10 | 613 |  |  |  |  |
| O=C1c2ccccc2S(=O)(=O)N1CCCCN1CCN(c2ncccn2)CC1 [ipsapirone, reference compound] | 25 | > 1000 | 850 | > 1000 |  |  |  |  |
| COc1ccc2[nH]cc(SCCNCCCCN3C(=O)CC4(CCCC4)CC3=O)c2c1 [Example 8, 1-(4-(7,9-Dioxo-8-azaspiro[4,5]decan-8-yl)butyl-1-amino)-2-(5-methoxy-3-indolylthio)-ethane, oxalate] | 33 | > 1000 | 30 | > 1000 |  |  |  |  |
| O=C(c1ccc(F)cc1)C1CCN(CCn2c(=O)[nH]c3ccccc3c2=O)CC1 [ketanserin] |  |  |  |  |  |  |  | high affinity |
| COc1ccc2[nH]cc(OCCNCCCCN3C(=O)C4C5C=CC(C6C=CC65)C4C3=O)c2c1 (stereo not drawn) [Example 24, 1-(4-(1,3-Dioxo-4,7-etheno-1,3,3a,4,4a,6a,7,7a-octahydro-2H-cyclobut[f]isoindol-2-yl)butyl-1-amino)-2-(5-methoxy-3-indolyloxy)-ethane, oxalate] | 6.9 | > 1000 | 4 | > 1000 |  |  |  |  |
| COc1ccc2[nH]cc(SCCNCCCCN3C(=O)c4ccccc4C3=O)c2c1 [Example 9, 1-(4-Phthalimidobutyl-1-amino)-2-(5-methoxy-3-indolylthio)-ethane, oxalate] | 20 | 156 | 140 | > 1000 |  |  |  |  |
